# In patent US4559348A, “5- And/or 7-substituted pyrazolo-[4,3-b]-pyridines and their use as antiinflammatory agents” (Beecham Group, p.l.c., priority 1983, dated 1985):
# Tests used:
# [1] = Croton Oil Test (topical anti-inflammatory activity); assay type: in vivo, rat (Charles River Wistar); conditions: 1 mg/ear, 6 hours
# Experimental: Compounds were tested for anti-inflammatory activity in a topical model based on that described by Fregnan G. B. and Torsello, A. L. (1975), Current Therapeutic Research 17, No. 4, 375-381. In outline the method is as follows:
# Rats, Charles River Wistar Strain, female, 10/group. Weight range 200-240 g.
# Irritant solution applied consists of 1% croton oil in tetrahydrofuran. 0.05 ml is placed on each ear, compound being included in the irritant solution on one ear. 6 hours later the ears are removed by cutting along the hairline and weighed.
# -ve control--no irritant solution.
# +ve control--irritant solution on both ears.
# [2] = Carrageenin Test (paw volume); assay type: in vivo, rat (OLAC Wistar); conditions: 3 hours after carrageenin
# Experimental: Groups of 8 OLAC Wistar male rats (140-170 g) received the Compounds orally 1 hour before 0.1 ml of 0.5% λ carrageenin injected into the right hind paw. Paw volumes were measured by mercury displacement 3 hours after carrageenin.
# [3] = Quinone Quantal Writhing Test (analgesic activity); assay type: in vivo; conditions: 50 mg/kg po
# Experimental: L. C. Hendershot and J. Fersaith, J. Pharmac. exp. Therap. 1959, 125, 237-240.
# Compounds 1 and 2 had analgesic activity giving 10 and 50 percent inhibition respectively at a dose of 50 mg/kg po.
# [4] = Mouse Oxazolone Screen (topical anti-inflammatory activity); assay type: in vivo; conditions: 24 hr after challenge; for inhibition in vivo at 200 µg/ear: 200 μg/ear; for inhibition in vivo at 100 µg/ear: 100 μg/ear
# Experimental: Compounds were tested for topical anti-inflammatory activity in a mouse oxazolone screen, by a method modified from that of Dietrich and Hess [Int. Arch. Allergy, 38, 246 (1970)].
# Mice were sensitised with oxazolone (2 mg in EtOH) on a shaved area of the abdomen, and then challenged with oxazolone (100 μg) with or without the test compound on the left ear 5 days later.
# [5] = Rat Cantharidin Screen (topical anti-inflammatory activity); assay type: in vivo; conditions: 72 hrs
# Experimental: Compounds were tested for topical anti-inflammatory activity in a cantharidin rat ear screen, by a method described by A. Boris et al, [J. Invest. Dermatol. 68, 161 (1977)].
# Cantharidin (450 μg) in a suitable solvent, such as methanol or tetrahydrofuran applied topically to one rat ear, causes severe inflammation giving approximately double the normal weight at 72 hrs. compared to the other, untreated ear. The test compounds were applied simultaneously with cantharidin in tetrahydrofuran.
# [6] = in mice; cited from earlier work
smiles,measurement,setting,value
"c1cc2[nH]ncc2nc1N1CCCCC1 [Compound 1, 5-Piperidino-1H-pyrazolo(4,3-b)pyridine]",% Inhibition,[1],32.9%
same,% Inhibition,[2]; 88 mg/kg orally,34%
same,percent inhibition (analgesic activity),[3],10%
"Cc1cc(N2CCCCC2)c2[nH]ncc2n1 [Compound 2, 5-Methyl-7-piperidino-1H-pyrazolo(4,3-b)pyridine]",% Inhibition,[1],34.8%
same,% Inhibition,[2]; 81 mg/kg orally,41.7%
same,percent inhibition (analgesic activity),[3],50%
"Cc1ccc(Sc2cc(C)nc3cn[nH]c23)cc1 [Compound 3, 5-Methyl-7-(p-tolythio)-1H-pyrazolo(4,3-b)pyridine]",inhibition in vivo at 200 µg/ear,[4],37%
"Cc1cc(Nc2ccccc2)c2[nH]ncc2n1 [Compound 4, 7-Anilino-5-methyl-1H-pyrazolo(4,3-b)pyridine]",inhibition in vivo at 200 µg/ear,[4],81%
same,inhibition in vivo at 1 mg/ear,[5],42%
same,% Inhibition,[1],71.7%
same,% Inhibition,[2]; 75 mg/kg orally,40.2%
"Cc1cc(Nc2ccccc2)c2nn(C)cc2n1 [Compound 5, 7-Anilino-2,5-dimethyl-2H-pyrazolo(4,3-b)pyridine]",inhibition in vivo at 200 µg/ear,[4],63%
same,inhibition in vivo at 2 mg/ear,[5],44%
"CCOc1ccc(Nc2cc(C)nc3cn[nH]c23)cc1 [Compound 7, 7-(4-Ethoxyanilino)-5-methyl-1H-pyrazolo[4,3-b]pyridine]",inhibition in vivo at 100 µg/ear,[4],56%
same,inhibition in vivo at 2 mg/ear,[5],25%
"Cc1cc(Nc2ccccc2C)c2[nH]ncc2n1 [Compound 8, 7-(2-Methylanilino)-5-methyl-1H-pyrazolo[4,3-b]pyridine]",inhibition in vivo at 100 µg/ear,[4],31%
same,inhibition in vivo at 0.9 mg/ear,[5]; 0.9 mg/ear,56%
"Cc1cc(Sc2ccccc2)c2[nH]ncc2n1 [Compound 9, 5-Methyl-7-phenylthio-1H-pyrazolo[4,3-b]pyridine]",inhibition in vivo at 100 µg/ear,[4],61%
same,inhibition in vivo at 1 mg/ear,[5],40%
"CCCCNc1cc(C)nc2cn[nH]c12 [Compound 10, 7-n-Butylamino-5-methyl-1H-pyrazolo[4,3-b]pyridine]",inhibition in vivo at 100 µg/ear,[4],54%
same,inhibition in vivo at 0.5 mg/ear,[5]; 0.5 mg/ear,76%
"Cc1cc(NC2CCCCC2)c2[nH]ncc2n1 [Compound 11, 7-Cyclohexylamino-5-methyl-1H-pyrazolo[4,3-b]pyridine]",inhibition in vivo at 1 mg/ear,[5],66%
"CCOc1cccc(Nc2cc(C)nc3cn[nH]c23)c1 [Compound 12, 7-(3-Ethoxyanilino)-5-methyl-1H-pyrazolo[4,3-b]pyridine]",inhibition in vivo at 1 mg/ear,[5],41%
"Cc1cc(Nc2ccc(Cl)cc2)c2[nH]ncc2n1 [Compound 14, 7-(4-Chloroanilino)-5-methyl-1H-pyrazolo[4,3-b]pyridine]",inhibition in vivo at 2 mg/ear,[5],27%
"COc1ccc(Nc2cc(C)nc3cn[nH]c23)cc1 [Compound 15, 7-(4-Methoxyanilino)-5-methyl-1H-pyrazolo[4,3-b]pyridine]",inhibition in vivo at 1 mg/ear,[5],41%
"Cc1cc(N(C)c2ccccc2)c2[nH]ncc2n1 [Compound 17, 7-(N-Methylanilino)-5-methyl-1H-pyrazolo[4,3-b]pyridine]",inhibition in vivo at 100 µg/ear,[4],32%
same,inhibition in vivo at 1 mg/ear,[5],31%
"c1ccc(Nc2ccnc3cn[nH]c23)cc1 [Compound 19, 7-Anilino-1H-pyrazolo[4,3-b]pyridine]",inhibition in vivo at 1 mg/ear,[5],50%
"Cc1cc(Nc2ccc(C(C)(C)C)cc2)c2[nH]ncc2n1 [Compound 22, 5-Methyl-7-p-t-butylanilino-1H-pyrazolo[4,3-b]pyridine]",inhibition in vivo at 1 mg/ear,[5],68%
"Cc1cc(Nc2ccc(Cl)c(Cl)c2)c2[nH]ncc2n1 [Compound 24, 7-(3,4-Dichloroanilino)-5-methyl-1H-pyrazolo[4,3-b]pyridine]",inhibition in vivo at 1 mg/ear,[5],29%
CC(=O)N(C(C)=O)c1cc(C)nc2c(C)n[nH]c12 [The compound wherein R is NAc2],CNS antidepressant activity,[6],having CNS antidepressant activity
